Test results taken from ChEMBL document CHEMBL1201862, “PubChem BioAssay data set” (2004).
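Where inhibition never reached the appropriate level, the endpoint shown equals the highest concentration tested. Otherwise, values were interpolated linearly from a five-concentration, 48-hour dose response in 96-well plates. Abbreviation: GI50, concentration required for 50% inhibition of growth.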 Calls of active or inactive are those of the source. Cut-off read from the data, not from the text of the source: active = GI50 up to about 1.1 µM and inactive = higher.

Tests used:
Assay in all cases: NCI anticancer screen, dose series, 48 h
[1] = system: DLD-1
[2] = system: DMS-114
[3] = system: HOP-18
[4] = system: KM-20L2
[5] = system: LXFL 529
[6] = system: M19-MEL
[7] = system: RXF 631
[8] = system: SNB-78
[9] = system: XF498

SMILES	GI50 [1]	GI50 [2]	GI50 [3]	GI50 [4]	GI50 [5]	GI50 [6]	GI50 [7]	GI50 [8]	GI50 [9]
Cc1c(C(=O)C/C(=N/NC(=O)C[n+]2ccccc2)C(=O)Nc2ccccc2)[n+]([O-])c2ccccc2[n+]1[O-]	> 100 µM (inactive)	> 100 µM (inactive)	> 100 µM (inactive)	> 100 µM (inactive)	> 100 µM (inactive)	> 100 µM (inactive)	> 100 µM (inactive)	> 100 µM (inactive)	> 100 µM (inactive)
C#C[C@]1(O)CCCC2=CC(=O)CC[C@@]21C	> 100 µM (inactive)	> 100 µM (inactive)	> 100 µM (inactive)	> 100 µM (inactive)	> 100 µM (inactive)	> 100 µM (inactive)	–	–	–
Cc1cccc(C2=C/C(=C(\SS/C(C(=O)c3ccc(OCC(=O)O)c(Cl)c3Cl)=C3\C=C(c4cccc(C)c4)SS3)C(=O)c3ccc(OCC(=O)O)c(Cl)c3Cl)SS2)c1	27.4 µM (inactive)	5.42 µM (inactive)	12.8 µM (inactive)	47.1 µM (inactive)	–	19.1 µM (inactive)	–	15.6 µM (inactive)	7.98 µM (inactive)
CCC(CO)COC(=O)/C=C/C(=O)OCC(CC)CO (stereo not drawn)	> 85.9 µM (inactive)	> 100 µM (inactive)	> 100 µM (inactive)	> 100 µM (inactive)	78.7 µM (inactive)	> 100 µM (inactive)	> 100 µM (inactive)	> 100 µM (inactive)	> 100 µM (inactive)
Cc1cccc(C)c1NC(=O)CCCC(=O)C(C#N)c1ccc(Cl)cc1 (stereo not drawn)	> 100 µM (inactive)	> 100 µM (inactive)	> 100 µM (inactive)	> 100 µM (inactive)	> 100 µM (inactive)	> 100 µM (inactive)	–	> 100 µM (inactive)	–
COc1c(OC2OC(CO)C(O)C(O)C2O)cc2c(c1OC)-c1ccc(OC)c(=O)cc1C(NC(C)=O)CC2 (stereo not drawn)	> 100 µM (inactive)	35.7 µM (inactive)	> 100 µM (inactive)	> 100 µM (inactive)	86.1 µM (inactive)	> 91.2 µM (inactive)	> 100 µM (inactive)	> 100 µM (inactive)	83.6 µM (inactive)
CCOC(=O)/C(=C/c1ccccc1Br)P(=O)(OCC)OCC	1.29 µM (inactive)	–	3.34 µM (inactive)	2.25 µM (inactive)	1.29 µM (inactive)	1.55 µM (inactive)	2.5 µM (inactive)	–	1.93 µM (inactive)
Cc1cc2c(=O)cc(-c3ccncc3)oc2c(C(=O)O)c1C	–	–	> 100 µM (inactive)	> 100 µM (inactive)	> 100 µM (inactive)	> 100 µM (inactive)	> 100 µM (inactive)	> 100 µM (inactive)	> 100 µM (inactive)
Cn1c(=O)c2c3ccccc3c(C(=O)c3ccccc3)n2c2ccccc21	8.24 µM (inactive)	3.67 µM (inactive)	18.7 µM (inactive)	3.8 µM (inactive)	> 24.5 µM (inactive)	3.68 µM (inactive)	–	63.2 µM (inactive)	> 50.9 µM (inactive)
O=C(Nc1cccc(Cl)c1)c1cc2cc(/N=N/c3ccc(Br)cc3)ccc2oc1=O	40 µM (inactive)	18.4 µM (inactive)	63.2 µM (inactive)	45.1 µM (inactive)	14.1 µM (inactive)	> 10 µM (inactive)	68.1 µM (inactive)	52.8 µM (inactive)	46.8 µM (inactive)
Cc1ccc(NC(=O)C2C3CCC(O3)C2C(=O)O)cc1 (stereo not drawn)	> 54.1 µM (inactive)	33.3 µM (inactive)	> 86.3 µM (inactive)	> 26.6 µM (inactive)	> 46.2 µM (inactive)	> 61.2 µM (inactive)	53.7 µM (inactive)	> 86.7 µM (inactive)	22.6 µM (inactive)
CC(=O)N1C(=O)C(=O)c2cc(Cl)ccc21	> 100 µM (inactive)	> 100 µM (inactive)	> 100 µM (inactive)	–	> 100 µM (inactive)	> 100 µM (inactive)	> 100 µM (inactive)	> 100 µM (inactive)	0.234 µM (active)
COc1nc(OC)nc(Sc2ccc(Sc3ccc(Sc4nc(OC)nc(OC)n4)cc3)cc2)n1	> 100 µM (inactive)	24.1 µM (inactive)	> 100 µM (inactive)	> 100 µM (inactive)	> 100 µM (inactive)	> 100 µM (inactive)	–	> 100 µM (inactive)	> 100 µM (inactive)
